# From PMC8963105, “A Novel Modulator of the Renin–Angiotensin System, Benzoylaconitine, Attenuates Hypertension by Targeting ACE/ACE2 in Enhancing Vasodilation and Alleviating Vascular Inflammation” (Frontiers in Pharmacology, 2022)
# Columns and labels:
# p-eNOS^Ser1177 = assay: p-eNOS Ser1177 in aorta of SHRs (Western blot); format: in vivo, rat; details: vessel of SHRs, oral 14 days
# Source text: (§1) All three MDAs (BAC, BMC, and BHC) were purchased from Nature-Standard Co., Ltd. (Shanghai, China) and their purities were all over 98%. The anti-hypertensive effects of MDAs were studied in both acute and chronic experiments. The 16-week-old SHRs were used in animal experiments, and each group had six rats. In the acute experiment, drug administration was via i.v. injection. For i.v. injection, the animals were randomly assigned into four groups: vehicle (0.1% DMSO–0.9% salt solution, n = 6), low-dose group (0.6 mg kg^−1 body weight, n = 6), medium-dose group (2 mg kg^−1 body weight, n = 6), and high-dose group (6 mg kg^−1 body weight, n = 6). The drug was administered using a venous catheter. In chronic experiments, the animals were randomly assigned into five groups: vehicle (5% Tween 80–0.9% salt solution, n = 6), captopril group (5 mg kg^−1 body weight, n = 6), low-dose group (3 mg kg^−1 body weight, n = 6), medium-dose group (10 mg kg^−1 body weight, n = 6), and high-dose group (30 mg kg^−1 body weight, n = 6). Oral administration with drug or 5% Tween 80–0.9% salt solution was carried out once a day, and continued for 14 days. […] Blood pressure was recorded in real time.
# (§2) The cell samples and tissue sample were collected and placed in ice rapidly. […] Protein concentration in cell lysates was measured using a Bio-Rad DC Protein Assay Kit […]. […]
# HUVECs = assay: CCK-8 cell viability (drug cytotoxicity) in HUVECs; format: cell-based, human; details: dose lower than 100 μM, 48 h
# Source text: Human umbilical vein endothelial cells (HUVECs) were isolated from umbilical cords as previously described ([Jaffe et al., 1973]). They were purchased from ATCC (cat# CRL-1444, Manassas, VA, United States) and cultured in endothelial cell medium (ECM, ScienCell, Carlsbad, CA, United States) supplemented with 5% FBS, 1% endothelial cell growth supplement, and 1% antibiotics (Sigma, St. Louis, MO, United States). Cells harvested between the third and tenth passages were used in the experiments. Cells were cultured until they were ∼80% confluent. After pre-starving in a quiescing ECM supplemented with 1% FBS and 1% antibiotics for 24 h, the cells were treated using different concentrations of BAC (Control, DMSO, 25, 50, and 100 μM, dissolved in 0.1% DMSO–DMEM) with or without MG132, an inhibitor of proteasome, at 20 nM or 40 nM for 24 h. Then, cell samples were collected for Western blot analysis or immunofluorescence staining.
# The potential of cells to maintain or recover viability after treatment with each agent was determined. Cell viability can be distinguished from the all-or-nothing states of life and death using a quantifiable index between 0 and 1 (or 0 and 100%). Cell viability was measured by a Cell Counting Kit-8 (CCK-8) Assay Kit (EnoGene, Nanjing, China). […] After 1 h of incubation, the absorbance was measured at 450 nm using a microplate reader (Thermo Fisher Scientific). […]
# ACE [1] = assay: ACE expression in aorta of SHRs (Western blot, tissue immunofluorescence); format: in vivo, rat; details: oral 14 days
# Source text: as §1, with “time. […]” for “time.”
# as §2
# p-IKB-α = assay: phosphorylation of IKB-α in aorta of SHRs (Western blot); format: in vivo, rat; details: oral 14 days
# Source text: as §1, §2
# ACE [2] = assay: ACE protein expression in HUVECs (Western blot, immunofluorescence); format: cell-based, human; details: 24 h
# Source text: Human umbilical vein endothelial cells (HUVECs) were isolated from umbilical cords as previously described ([Jaffe et al., 1973]). They were purchased from ATCC (cat# CRL-1444, Manassas, VA, United States) and cultured in endothelial cell medium (ECM, ScienCell, Carlsbad, CA, United States) supplemented with 5% FBS, 1% endothelial cell growth supplement, and 1% antibiotics (Sigma, St. Louis, MO, United States). Cells harvested between the third and tenth passages were used in the experiments. Cells were cultured until they were ∼80% confluent. […]
# After treatment with different concentrations of BAC (Control, DMSO, 25, 50, and 100 μM, dissolved in 0.1% DMSO–DMEM) for 24 h, the cells were washed with PBS three times, fixed in 4% paraformaldehyde for 20 min, permeabilized with 0.3% Triton X-100 for 20 min, and then blocked with 5% BSA for 30 min at room temperature of 25°C. […] The samples were analyzed using a confocal laser scanning microscope (Zeiss LSM 510 META, Oberkochen, Germany).
# as §2
# ACE2 = ACE2 expression in aorta of SHRs (Western blot, tissue immunofluorescence); format: in vivo, rat; details: oral 14 days
# Source text: as §1, with “time. […]” for “time.”
# as §2
smiles,measurement,setting,value
"CCN1CC2(COC)C(O)CC(OC)C34C5CC6(O)C(OC)C(O)C(O)(C5C6OC(=O)c5ccccc5)C(C(OC)C23)C14 (stereo not shown) [BAC, Benzoylaconitine]",p-eNOS^Ser1177,p-eNOS^Ser1177,activated
same,cell viability (toxicity on HUVECs),HUVECs,no significant effect
same,ACE expression in the aorta,ACE [1],significantly downregulated
same,phosphorylation of IKB-α,p-IKB-α,downregulated
same,protein expression of ACE,"ACE [2]; HUVECs, 25, 50, 100 μM",inhibit the expression of ACE
same,ACE protein degradation,"ACE [2]; HUVECs, BAC 100 μM with or without proteasome inhibitor MG132 20 or 40 nM",promote ACE protein degradation
same,ACE2 expression in the aorta,ACE2,no effect
